From ChEMBL document CHEMBL3871268, “Chalcogen containing heterocyclic scaffolds: New hybrids with antitumoral activity” (Eur J Med Chem, 2016) come the findings set out here.

As usually defined, the GI50 is the concentration giving 50% growth inhibition. The term LC50 denotes the concentration that kills 50% of the test population. For orientation: TGI means the concentration giving total growth inhibition.

Each structure is given as a SMILES string. Bounds are passed on as bounds.

Test [1] is described as follows: Cytotoxicity against human MCF7 cells assessed as reduction in cell viability measured after 72 hrs by MTT assay. Format: functional. The following applies: MCF7, 72 h. (In general: Tetrazolium assays rely on reduction of a dye to a coloured formazan, in cell work by metabolically active cells.)
Test [2] can be described thus: Cytotoxicity against human PC3 cells assessed as reduction in cell viability measured after 72 hrs by MTT assay. Type of test: functional. The settings on record: PC-3, 72 h.

On to `N#CSc1nccc(Cl)n1`, for which, in test [1], the GI50 came to 35 µM, the LC50 is more than 100 µM and the TGI was more than 100 µM. Further, in test [2], the GI50 was more than 100 µM, the LC50 (concentration lethal to 50% of cells) was more than 100 µM and the total growth inhibition concentration (TGI) is more than 100 µM.

Turning to `CSc1ccnc(SC)n1`, in test [1], the GI50 is more than 100 µM, the LC50 was more than 100 µM and the TGI was more than 100 µM. For the same molecule, in test [2], the GI50 came out at 77.5 µM, the LC50 (concentration lethal to 50% of cells) is more than 100 µM and the total growth inhibition concentration (TGI) was more than 100 µM.

As to `Sc1nc2ccccc2s1` [2-MERCAPTOBENZOTHIAZOLE], in test [1], the 50% growth inhibitory concentration (GI50) is more than 100 µM and the concentration for total growth inhibition (TGI) was more than 100 µM. For the same molecule, in test [2], the 50% growth inhibitory concentration (GI50) is 84.9 µM and the TGI was more than 100 µM.

With `CSc1nc2ccccc2s1`, the 50% growth inhibitory concentration (GI50) in test [2] was 39.6 µM.

Turning to `O=C1c2ccccc2C(=O)N1CS`, in test [1], the GI50 was more than 100 µM, the 50% lethal concentration (LC50) is more than 100 µM and the TGI is more than 100 µM. In addition, in test [2], the concentration for 50% growth inhibition (GI50) was found to be 74.7 µM, the LC50 (concentration lethal to 50% of cells) was more than 100 µM and the TGI was more than 100 µM.

As to `N#CSc1nc2ccccc2s1`, in test [1], the GI50 worked out at 40.1 µM, the LC50 was found to be 87.7 µM and the TGI stood at 67.6 µM. In addition, in test [2], the GI50 stood at 42 µM, the LC50 (concentration lethal to 50% of cells) is 85.5 µM and the total growth inhibition concentration (TGI) was 66.3 µM.

Take `N#CSCN1C(=O)c2ccccc2C1=O`: in test [1], the GI50 was found to be 48.1 µM, the LC50 was more than 100 µM and the concentration for total growth inhibition (TGI) is more than 100 µM. For the same molecule, in test [2], the 50% growth inhibitory concentration (GI50) is more than 100 µM, the LC50 (concentration lethal to 50% of cells) was more than 100 µM and the total growth inhibition concentration (TGI) is more than 100 µM.

On to `[SeH]Cc1cc2c(cc1Br)OCO2`, for which, in test [1], the 50% growth inhibitory concentration (GI50) was found to be 22.2 µM, the LC50 is more than 50 µM and the TGI was more than 50 µM. For the same molecule, in test [2], the concentration for 50% growth inhibition (GI50) stood at 34.6 µM, the LC50 (concentration lethal to 50% of cells) was more than 50 µM and the concentration for total growth inhibition (TGI) is more than 50 µM.

As for `N#C[Se]CN1C(=O)c2ccccc2C1=O`, in test [1], the concentration for 50% growth inhibition (GI50) came to 15.4 µM, the LC50 was found to be 93.4 µM and the TGI is 56.1 µM. Also, in test [2], the GI50 was 11.2 µM, the LC50 (concentration lethal to 50% of cells) turned out to be 56.7 µM and the TGI was determined as 32.1 µM.

On to `N#C[Se]Cc1cc2c(cc1Br)OCO2`, for which, in test [1], the GI50 was 66.9 µM, the LC50 is more than 100 µM and the TGI is more than 100 µM. In addition, in test [2], the GI50 is 24 µM, the LC50 (concentration lethal to 50% of cells) was more than 100 µM and the TGI is 45.7 µM.

As to `Sc1ccc2ccccc2n1`, in test [1], the GI50 was more than 100 µM, the LC50 was more than 100 µM and the total growth inhibition concentration (TGI) was more than 100 µM. In test [2], the 50% growth inhibitory concentration (GI50) was 85.3 µM, the LC50 (concentration lethal to 50% of cells) is more than 100 µM and the total growth inhibition concentration (TGI) is more than 100 µM.

On to `N#C[Se]Cc1c2ccccc2nc2ccccc12`, for which, in test [1], the GI50 stood at 40.1 µM, the LC50 amounted to 44.5 µM and the concentration for total growth inhibition (TGI) worked out at 67.6 µM. Also, in test [2], the GI50 came out at 16.6 µM, the LC50 (concentration lethal to 50% of cells) is 40 µM and the TGI came to 28.3 µM.

`[SeH]Cc1c2ccccc2nc2ccccc12`: in test [1], the GI50 turned out to be 39.1 µM, the LC50 was more than 100 µM and the TGI was more than 100 µM. Moreover, in test [2], the GI50 is 83.2 µM, the LC50 (concentration lethal to 50% of cells) is more than 100 µM and the TGI was more than 100 µM.

Take `[SeH]c1nc2ccccc2s1`: in test [1], the GI50 was more than 50 µM, the LC50 is more than 50 µM and the TGI is more than 50 µM. Besides, in test [2], the GI50 is more than 50 µM, the LC50 (concentration lethal to 50% of cells) was more than 50 µM and the concentration for total growth inhibition (TGI) is more than 50 µM.

In the case of `Sc1ccnc(S)n1`, in test [1], the GI50 was more than 100 µM, the LC50 was more than 100 µM and the total growth inhibition concentration (TGI) is more than 100 µM. In test [2], the GI50 is 82.5 µM, the LC50 (concentration lethal to 50% of cells) was more than 100 µM and the TGI was more than 100 µM.

With `C[Se]c1ccc2ccccc2n1`, in test [1], the GI50 was determined as 21 µM, the median lethal concentration (LC50) was more than 100 µM and the total growth inhibition concentration (TGI) is more than 100 µM. Moreover, in test [2], the GI50 was 83.6 µM, the LC50 (concentration lethal to 50% of cells) is more than 100 µM and the TGI is more than 100 µM.
